From the NIST ThermoML archive (doi:10.1021/je7006549)

Assay: mn = molality of the nth substance listed, in mol/kg
Details: 101 kPa, Liquid

CC1=CC(=O)c2ccccc2C1=O [2-methyl-1,4-naphthalenedione] + Cc1cccc(C)c1
Details	mass density [kg/m3]	viscosity [mPa·s]
303.15 K, m1 = 0.0452	857.6	0.5673
303.15 K, m1 = 0.0902	859.6	0.5771
303.15 K, m1 = 0.1352	861.6	0.5802
303.15 K, m1 = 0.1802	863.6	0.5844
303.15 K, m1 = 0.2254	865.6	0.5902
303.15 K, m1 = 0.272	867.7	0.6031
308.15 K, m1 = 0.0452	853.1	0.5351
308.15 K, m1 = 0.0902	855.1	0.5422
308.15 K, m1 = 0.1352	857.1	0.5467
308.15 K, m1 = 0.1802	859.1	0.5523
308.15 K, m1 = 0.2254	861.1	0.5566
308.15 K, m1 = 0.272	863.2	0.5654
313.15 K, m1 = 0.0452	848.9	0.5098
313.15 K, m1 = 0.0902	850.9	0.5144
313.15 K, m1 = 0.1352	852.9	0.5188
313.15 K, m1 = 0.1802	854.9	0.5237
313.15 K, m1 = 0.2254	856.9	0.5284
313.15 K, m1 = 0.272	859	0.5352
318.15 K, m1 = 0.0452	844.4	0.4864
318.15 K, m1 = 0.0902	846.4	0.4931
318.15 K, m1 = 0.1352	848.4	0.4977
318.15 K, m1 = 0.1802	850.4	0.5013
318.15 K, m1 = 0.2254	852.4	0.505
318.15 K, m1 = 0.272	854.5	0.5117
323.15 K, m1 = 0.0452	840.3	0.4593
323.15 K, m1 = 0.0902	842.3	0.4642
323.15 K, m1 = 0.1352	844.3	0.4669
323.15 K, m1 = 0.1802	846.3	0.4711
323.15 K, m1 = 0.2254	848.3	0.4753
323.15 K, m1 = 0.272	850.4	0.4817
328.15 K, m1 = 0.0452	835.7	0.4381
328.15 K, m1 = 0.0902	837.7	0.4432
328.15 K, m1 = 0.1352	839.7	0.4456
328.15 K, m1 = 0.1802	841.7	0.4497
328.15 K, m1 = 0.2254	843.7	0.4539
328.15 K, m1 = 0.272	845.8	0.463
333.15 K, m1 = 0.0452	831.6	0.4148
333.15 K, m1 = 0.0902	833.6	0.4198
333.15 K, m1 = 0.1352	835.6	0.4242
333.15 K, m1 = 0.1802	837.6	0.4269
333.15 K, m1 = 0.2254	839.6	0.429
333.15 K, m1 = 0.272	841.7	0.4342

CC1=CC(=O)c2ccccc2C1=O [2-methyl-1,4-naphthalenedione] + Cc1ccccc1
Details	mass density [kg/m3]	viscosity [mPa·s]
303.15 K, m1 = 0.0454	859.6	0.5365
303.15 K, m1 = 0.0909	861.7	0.544
303.15 K, m1 = 0.1365	863.8	0.5487
303.15 K, m1 = 0.1817	865.9	0.5572
303.15 K, m1 = 0.227	868	0.5612
303.15 K, m1 = 0.2728	870.1	0.5683
308.15 K, m1 = 0.0454	855	0.5088
308.15 K, m1 = 0.0909	857.1	0.516
308.15 K, m1 = 0.1365	859.2	0.5185
308.15 K, m1 = 0.1817	861.3	0.5246
308.15 K, m1 = 0.227	863.4	0.5277
308.15 K, m1 = 0.2728	865.5	0.5346
313.15 K, m1 = 0.0454	850	0.4814
313.15 K, m1 = 0.0909	852.1	0.488
313.15 K, m1 = 0.1365	854.2	0.4902
313.15 K, m1 = 0.1817	856.3	0.4955
313.15 K, m1 = 0.227	858.4	0.4987
313.15 K, m1 = 0.2728	860.5	0.5051
318.15 K, m1 = 0.0454	845.6	0.4535
318.15 K, m1 = 0.0909	847.7	0.4582
318.15 K, m1 = 0.1365	849.8	0.463
318.15 K, m1 = 0.1817	851.9	0.4677
318.15 K, m1 = 0.227	854	0.4753
318.15 K, m1 = 0.2728	856.1	0.4775
323.15 K, m1 = 0.0454	840.8	0.4321
323.15 K, m1 = 0.0909	842.9	0.4362
323.15 K, m1 = 0.1365	845	0.439
323.15 K, m1 = 0.1817	847.1	0.443
323.15 K, m1 = 0.227	849.2	0.4459
323.15 K, m1 = 0.2728	851.3	0.4515
328.15 K, m1 = 0.0454	836.1	0.413
328.15 K, m1 = 0.0909	838.2	0.4147
328.15 K, m1 = 0.1365	840.3	0.4176
328.15 K, m1 = 0.1817	842.4	0.4208
328.15 K, m1 = 0.227	844.5	0.4242
328.15 K, m1 = 0.2728	846.6	0.4303
333.15 K, m1 = 0.0454	831.2	0.3872
333.15 K, m1 = 0.0909	833.3	0.3909
333.15 K, m1 = 0.1365	835.4	0.3927
333.15 K, m1 = 0.1817	837.5	0.398
333.15 K, m1 = 0.227	839.6	0.4065
333.15 K, m1 = 0.2728	841.7	0.4137
